Source: patent US9476050B2, “Combination therapy” (TURUN YLIOPISTO, priority 2011, dated 2016)
“Also recorded” adds a separate entry of the source. *: point of attachment. Cbz = O=C(OCc1ccccc1)*; CH2F = FC*

Experiments:
Type in all cases: cell-based, human
T98G glioblastoma cells [1] = test: Apoptosis assay by sub-G0/G1 fraction estimation (apoptotic nuclear fragmentation, PI staining, FACS); conditions: for sensitization to STS mediated apoptosis: siRNA or chemical PP2A activator followed by STS 24 hrs; for Potentiation % (apoptotic nuclear fragmentation): T98G transfected with PME-1 specific dsRNA; for level of apoptosis in PME-1 depleted cells: PME-1 siRNA 48 hrs, then drug 24 hrs; for reversal of PME-1 siRNA and STS mediated apoptosis: agent added to, or siRNA co-transfected with, PME-1 siRNA plus STS
Protocol: The percentage of the sub-G0/G1 fraction containing fragmented nuclei stained with Propidium iodide (P1) was taken as a measure of apoptotic cells. 3.5-4×10^4 cells were plated in 24-well plates, transfected with siRNA for 48 hrs, and then treated with indicated concentration of test compounds in fresh media. After 24 hrs of treatment, both floating and adherent cells were harvested by centrifugation. Cell pellets were resuspended in 400 μl of hypotonic PI buffer, containing 40 mM Tri-sodium citrate (Merck), 0.3% Triton X-100 (Sigma-Aldrich) and 50 μg/ml Propidium iodide (Sigma-Aldrich) in PBS, and incubated at room temperature for 10 minutes in dark. The flow cytometric analysis of PI stained nuclei was performed and the recorded data was analyzed using a FACScan flow cytometer and software (Becton Dickinson) respectively.
In experiments using pan-caspase inhibitor, cells were kept in growth media containing 30 μM Z-VAD-FMK starting from 18 hrs after transfection till the PI staining. For treatment with PP2A activators FTY720, Sodium Selenate and Xylulose-5-phosphate, cells were kept in respective drugs throughout the experiment starting from 24 hrs after transfection. PP2A inhibitor, Okadaic acid, treatment was given for 24 hrs after 24 hrs of transfection.
The T98G cells transfected with siRNA for 48 hrs were given drug treatments for 24 hrs and were subsequently lysed, and their nuclei were stained using hypotonic propidium iodide buffer. The lysates were analysed for changes in the sub-G0/G1 fraction of fragmented nuclei by flow cytometry (FACS) (FIG. 1B). Condensation and fragmentation of nucleus is a key biochemical feature of apoptosis and sub-G0/G1 analysis has been widely used for detection of apoptosis (FEBS Lett., 1986, 194(2):347-50; Cytometry, 1991, 12(4):323-329; Nature Protocols, 2006, 1:1458-1461).

U87MG glioblastoma cells = test: Colony formation assay, U87MG; conditions: scrambled or PME-1 siRNA, then drug 2 days; FIG. 5D
Description: (§1) Cells plated in very low density (4-6×10^3) in 6-well plates were allowed to grow for about 7 days until they form small colonies. These cells were then transfected with Scrambled or PME-1 siRNA using Lipofectamine RNAiMAX reagent (Invitrogen) according to the manufacturer's instructions. After 48 hrs, treatments were given with indicated concentration of chemical drugs for another 48 hrs. Cell colonies were washed with PBS, fixed with 3.7% formaldehyde and stained with 0.2% crystal violet solution (made in 10% ethanol) for 15 minutes at room temperature each. Excess stain was removed by repeated washings with PBS. Plates were dried and pictures were taken with Olympus SP-600UZ camera or Epson perfection V700 scanner and analysed with ImageJ.

[2] = test system: U251MG glioblastoma cells; test: Colony formation assay, U251MG; conditions: scrambled or PME-1 siRNA, then drug 2 days; FIG. 5C
Description: as §1

[3] = test system: Caspase-3 and -7 activity; test: Caspase-Glo 3/7 assay in T98G cells; conditions: PME-1 depletion in combination with STS treatment
Protocol: Caspase-3 and -7 activity was measured by luminescence based method, which utilize a substrate containing Caspase-3 and -7 target peptide DEVD, named Caspase-Glo 3/7 Assay (Promega Corp.). Assays were performed in white polystyrene 96-well plates (Nunc, Thermo Fisher Scientific Inc.) according to manufacturer's instructions and luminescence was measured with Perkin Elmer Victor2 Plate Reader.

T98G glioblastoma cells [4] = test: Colony formation assay, T98G
Description: as §1
(§2) The efficacy of this treatment combination was then tested by colony formation assay in T98G glioblastoma cells and another glioblastoma cell line U118MG. For this experiment, these cells were grown in 6-well plates until the formation of small colonies which were then transfected with Scrambled or PME-1 siRNA for 48 hrs followed by treatment with STS at the indicated concentrations for another 48 hrs.

T98G glioblastoma cells [5] = test: Cell viability assay, CellTiter-glo (CTG); conditions: PME-1 siRNA plus STS treatment
Protocol: Cell viability was determined by CellTiter-glo (CTG) assay which measures the cellular ATP levels as an indicator of metabolically active and viable cells. CTG reagent kit was purchased from Promega Corp. and assays were performed according to their recommendations. Assays were performed in white polystyrene 96-well plates (Nunc, Thermo Fisher Scientific Inc.) and luminescence was measured with Perkin Elmer Victor2 Plate Reader.

[6] = test system: U118MG glioblastoma cells; test: Colony formation assay, U118MG
Description: as §1, §2

[7] = PME-1 depletion or STS treatment alone
[8] = combination of PME-1 siRNA 48 hrs and STS 48 hrs

O=C(CO)[C@@H](O)[C@H](O)COP(=O)(O)O [Xylulose-5-phosphate]
sensitization to STS mediated apoptosis (T98G glioblastoma cells [1]; T98G): None of these chemical PP2A activators were able to sensitize

Cn1cc(C2=C(c3cn(C4CCN(Cc5ccccn5)CC4)c4ccccc34)C(=O)NC2=O)c2ccccc21 [Enzastaurin, 3-(1-Methyl-1H-indol-3-yl)-4-(1-(1-(2-pyridinylmethyl)-4-piperidinyl)-1H-indol-3-yl)-1H-pyrrole-2,5-dione]
Potentiation % (apoptotic nuclear fragmentation) (T98G glioblastoma cells [1]; 5 μM drug): 15-20%

COC(=O)[C@@]1(O)C[C@H]2O[C@]1(C)n1c3ccccc3c3c4c(c5c6ccccc6n2c5c31)C(=O)NC4 [K252a, (9S,10R,12R)-2,3,9,10,11,12-Hexahydro-10-hydroxy-9-methyl-1-oxo-9,12-epoxy-1H-diindolo[1,2,3-fg:3′,2′,1′kl] pyrrolo[3,4-i][1,6] benzodiazocine-10-carboxylic acid methyl ester]
cell killing activity with PME-1 depletion (colony formation) (U87MG glioblastoma cells): enhanced the cell killing activity | cell killing activity with PME-1 depletion (colony formation) [2]: enhanced the cell killing activity | Potentiation % (apoptotic nuclear fragmentation) (T98G glioblastoma cells [1]; 500 nM drug): 10-15% | Potentiation % (apoptotic nuclear fragmentation) (T98G glioblastoma cells [1]; 5 μM drug): 80-90% | level of apoptosis in PME-1 depleted cells (T98G glioblastoma cells [1]; T98G): levels even higher than STS itself

Cn1cc(C2=C(c3cn(CCCSC(=N)N)c4ccccc34)C(=O)NC2=O)c2ccccc21 [RO-31-8220]
Potentiation % (apoptotic nuclear fragmentation) (T98G glioblastoma cells [1]; 5 μM drug): 5-10% | level of apoptosis in PME-1 depleted cells (T98G glioblastoma cells [1]; T98G): not active

O=C1NC(=O)c2c1c1c3ccccc3[nH]c1c1[nH]c3ccccc3c21 [Arcyriaflavin A, 12,13-Dihydro-5H-indolo[2,3-a] pyrrolo[3,4-c] carbazole-5,7(6H)-dione]
Potentiation % (apoptotic nuclear fragmentation) (T98G glioblastoma cells [1]; 5 μM drug): 5-10%

CN[C@@H]1C[C@H]2O[C@@](C)([C@@H]1OC)n1c3ccccc3c3c4c(c5c6ccccc6n2c5c31)C(=O)NC4 [Staurosporine, [9S-(9α,10β,11β, 13α)]-2,3,10,11, 12,13-Hexahydro-10-methoxy-9-methyl-11-(methylamino)-9,13-epoxy-1H,9H-diindolo[1,2,3-gh:3′,2′,1′-lm] pyrrolo[3,4-j][1,7] benzodiazonin-1-one]
increase of the activity of Caspase-3/7 [3]: above 6 fold | cell killing activity with PME-1 depletion (colony formation) (U87MG glioblastoma cells): enhanced the cell killing activity | cell killing activity with PME-1 depletion (colony formation) [2]: enhanced the cell killing activity | colony formation ability (T98G glioblastoma cells [4]; [7]): moderately reduced | colony formation ability (T98G glioblastoma cells [4]; [8]): almost complete loss of colonies | cell viability (T98G glioblastoma cells [5]): drastic decrease | Potentiation % (apoptotic nuclear fragmentation) (T98G glioblastoma cells [1]; 50 nM drug): 50-60% | level of apoptosis in PME-1 depleted cells (T98G glioblastoma cells [1]; T98G): very high level of apoptosis | level of apoptosis in PME-1 depleted cells (T98G glioblastoma cells [1]; T98G, listed as STS): dose dependent manner; also recorded: highly sensitive | concentration above which STS alone induces cell death (T98G glioblastoma cells [1]; control (Scrambled siRNA transfected) T98G cells): higher than 50 nM | concentration above which STS alone gives limited amount of cell death (T98G glioblastoma cells [1]; untransfected T98G cells): higher than 30 nM | colony formation ability [6, 7]: moderately reduced | colony formation ability [6, 8]: almost complete loss of colonies

C[C@]12O[C@H](C[C@]1(O)CO)n1c3ccccc3c3c4c(c5c6ccccc6n2c5c31)CNC4=O [CEP-701, (9S,10S,12R)-2,3,9,10,11,12-Hexahydro-10-hydroxy-10-(hydroxymethyl)-9-methyl-9,12-epoxy-1H-diindolo[1,2,3-fg:3′,2′,1′-kl] pyrrolo[3,4-i][1, 6]benzodiazocin-1-one]
Potentiation % (apoptotic nuclear fragmentation) (T98G glioblastoma cells [1]; 50 nM drug): 2-5% | Potentiation % (apoptotic nuclear fragmentation) (T98G glioblastoma cells [1]; 5 μM drug): 75-80% | level of apoptosis in PME-1 depleted cells (T98G glioblastoma cells [1]; T98G): levels even higher than STS itself

O=C1NC(=O)c2c1c1c3ccccc3n3c1c1c2c2ccccc2n1C1CCC3O1 [SB-218078, 9,10,11,12-Tetrahydro-9,12-epoxy-1H-diindolo [1,2,3-fg:3′,2′,1′-kl] pyrrolo[3,4-i][1,6] benzodiazocine-1,3(2H)-dione]
Potentiation % (apoptotic nuclear fragmentation) (T98G glioblastoma cells [1]; 50 nM drug): 2-5% | Potentiation % (apoptotic nuclear fragmentation) (T98G glioblastoma cells [1]; 5 μM drug): 25-30% | level of apoptosis in PME-1 depleted cells (T98G glioblastoma cells [1]; T98G): moderate levels of apoptosis

O=C1NCc2c1c1c3ccccc3[nH]c1c1[nH]c3ccccc3c21 [K252c, 6,7,12,13-Tetrahydro-5H-indolo[2,3-a]pyrrolo[3,4-c] carbazol-5-one]
Potentiation % (apoptotic nuclear fragmentation) (T98G glioblastoma cells [1]; 5 μM drug): 15-20%

CCCCCCCCc1ccc(CCC(N)(CO)CO)cc1 [FTY720]
sensitization to STS mediated apoptosis (T98G glioblastoma cells [1]; T98G): None of these chemical PP2A activators were able to sensitize

TRAIL
synergistic effect of PME-1 depletion / benefit of combination with PME-1 siRNA (T98G glioblastoma cells [1]; PME-1 siRNA versus scrambled siRNA, T98G): did not show the same trend

Sodium selenate
sensitization to STS mediated apoptosis (T98G glioblastoma cells [1]; T98G): None of these chemical PP2A activators were able to sensitize

CC1CNCCN1S(=O)(=O)c1cccc2cnccc12 (stereo not shown) [H7]
level of apoptosis in PME-1 depleted cells (T98G glioblastoma cells [1]; T98G): moderate levels of apoptosis

Cn1c2ccccc2c2c3c(c4c5ccccc5n(CCC#N)c4c21)CNC3=O [GÖ-6976, 12-(2-Cyanoethyl)-6,7,12,13-tetrahydro-13-methyl-5-oxo-5H-indolo[2,3-a]pyrrolo[3,4-c]carbazole]
Potentiation % (apoptotic nuclear fragmentation) (T98G glioblastoma cells [1]; 5 μM drug): 15-20%

C=C1[C@@H](O)[C@@H]2O[C@]3(CC[C@H](/C=C/[C@@H](C)[C@@H]4CC(C)=C[C@@]5(O[C@H](C[C@@](C)(O)C(=O)O)CC[C@H]5O)O4)O3)CC[C@H]2O[C@@H]1[C@@H](O)C[C@H](C)[C@H]1O[C@@]2(CCCCO2)CC[C@H]1C [OA, okadaic acid]
reversal of PME-1 siRNA and STS mediated apoptosis (T98G glioblastoma cells [1]; T98G): sufficient to rescue cells

Cbz-Val-Ala-Asp-CH2F
reversal of PME-1 siRNA and STS mediated apoptosis (T98G glioblastoma cells [1]; T98G): complete reversal

CO[C@@H]1[C@H](N(C)C(=O)c2ccccc2)C[C@H]2O[C@]1(C)n1c3ccccc3c3c4c(c5c6ccccc6n2c5c31)C(=O)NC4 [PKC412, [9S-(9α,10β,11β, 13α)]-N-(2,3,10, 11,12,13-Hexahydro-10-methoxy-9-methyl-1-oxo-9,13-epoxy-1 H,9H-diindolo [1,2,3-gh:3′,2′,1′-lm]pyrrolo[3,4-j][1,7]benzodiazonin-11-yl)-N-methyl benzamide]
cell killing activity with PME-1 depletion (colony formation) (U87MG glioblastoma cells): enhanced the cell killing activity | cell killing activity with PME-1 depletion (colony formation) [2]: enhanced the cell killing activity | Potentiation % (apoptotic nuclear fragmentation) (T98G glioblastoma cells [1]; 500 nM drug): 5-10% | Potentiation % (apoptotic nuclear fragmentation) (T98G glioblastoma cells [1]; 5 μM drug): 75-80% | level of apoptosis in PME-1 depleted cells (T98G glioblastoma cells [1]; T98G): levels even higher than STS itself

CN[C@@H]1C[C@H]2O[C@@](C)([C@@H]1OC)n1c3ccccc3c3c4c(c5c6ccccc6n2c5c31)C(=O)N[C@@H]4O [UCN-01, (9S)-2,3,10,11,12,13-Hexahydro-3α-hydroxy-10α-methoxy-9-methyl-11α-methyl amino-9β,13β-epoxy-1H,9H-diindolo [1,2,3-gh:3′,2′,1′-lm] pyrrolo[3,4-j][1,7] benzodiazonin-1-one]
Potentiation % (apoptotic nuclear fragmentation) (T98G glioblastoma cells [1]; 50 nM drug): 5-10% | Potentiation % (apoptotic nuclear fragmentation) (T98G glioblastoma cells [1]; 5 μM drug): 80-90% | level of apoptosis in PME-1 depleted cells (T98G glioblastoma cells [1]; T98G): levels even higher than STS itself

COC1C(CO)OC(n2c3c(Cl)cccc3c3c4c(c5c6cccc(Cl)c6[nH]c5c32)C(=O)NC4=O)C(O)C1O (stereo not drawn) [Rebeccamycin, 5h-indolo(2,3-a)pyrrolo(3,4-c)carbazole-5,7(6h)-dione,1,11-dichloro-12,13-dihy;dro-12-(4-o-methyl-beta-d-glucopyranosyl)]
Potentiation % (apoptotic nuclear fragmentation) (T98G glioblastoma cells [1]; 5 μM drug): 5-10%
